Test results: paper PMC7617456, “Cryptosporidium lysyl-tRNA synthetase inhibitors define the interplay between solubility and permeability required to achieve efficacy” (Science translational medicine, 2024)
Converted amounts (≈) assume the structure as drawn.

Assays:
HepG2 = HepG2 in vitro cytotoxicity; type: cell-based, human; details: for EC50: Homo sapiens, HepG2, cytotoxicity; for Cellular selectivity: ratio of mean HepG2/C. parvum EC50
[1] = Aqueous (kinetic) solubility by UHPLC; type: physicochemical; details: 25 °C, aqueous buffer, kinetic from dmso stock, PBS pH 7.4, UHPLC
Description: As previously described.(27) […]
samples were prepared by adding 5 µL stock to PBS pH 7.4 (195 µL). This solution was mixed […]
The solubility test samples were […]
vacuum ﬁ ltered (Millipore Multiscreen HTS ﬁ lter, 96-well format) to remove any undissolved […]
material. The ﬁ ltrate was analyzed for dissolved drug compound using a truncated UHPLC […]
methodology. A calibration solution was prepared for each test compound. The 10 mM stock […]
solution was diluted in DMSO to give a 500 µM solution. This was further diluted with 50:50 […]
acetonitrile:water to give a 50 µM solution. Aliquots (0.2, 2.0, and 5.0 µL) of this 50 µM solution were injected onto the UHPLC system, and the areas of the resultant peaks were […]
integrated to produce a calibration line. Aliquots of the test sample ﬁ ltrate (0.4 and 5.0 µL) […]
were injected onto the UHPLC system and the resultant test compound peak areas quantiﬁ ed […]
using the calibration line. […]

PAMPA permeability = type: in vitro ADME; details: for Papp at 5 h, 10 µM: PAMPA, pH 7.4, pH 7.4
Description: Solubility test samples were prepared by adding 5 μL stock to PBS pH 7.4 (195 μL). […] […] vacuum […] (Millipore Multiscreen HTS fi lter, 96-well format) to remove any undissolved material. The […] analyzed for dissolved drug compound using a truncated UHPLC methodology. A calibration solution was prepared for each test compound. […] Aliquots of the test sample […] (0.4 and 5.0 μL) were injected onto the UHPLC system and the resultant test compound peak areas quantifi ed […] PAMPA per meability As previously described.(28) The permeability assay was performed using a 96-well precoated BD Gentest PAMPA plate (BD Biosciences). Each well was divided into two chambers: donor and acceptor, separated by a lipid-oil-lipid trilayer constructed in a porous fi lter. […] Stock solutions (5 mM) of the compound were prepared in DMSO. […] The compound dissolved in phosphate buffered saline was added to the donor side of the membrane, and phosphate-buffered saline without the compound was added to the acceptor side. The PAMPA plate was left at room temperature for 5 h then an aliquot (100 μL) was removed from both acceptor and donor compartments and mixed with acetonitrile (80 μL) containing an internal standard: donepezil at 50 ng/mL. The samples were centrifuged (10 min, 5 °C, 3270×g) to sediment lipids and sealed prior to UPLC-MS/MS analysis using a Quattro Premier XE (Waters Corp, USA). Recovery of the compound from donor and acceptor wells was calculated, and data were only accepted when recovery exceeded 70%.

[2] = tested on: transgenic C. parvum that express NanoLuciferase; assay: IFN-Gamma KO mouse acute efficacy model; type: in vivo; details: DDD489, DDD508 50 mg/kg BID; DDD706 20 mg/kg QD; oral 7 days from day 6 PI
Description: First, compounds were tested in the acute cryptosporidiosis mouse model, IFN-Gamma KO.([16]) In this model, infection peaks at approximately 10-12 days PI, and resolves within a month. Mice were infected with a strain of transgenic C. parvum that expresses NanoLuciferase (NLuc).([12]) Mice were treated orally for 7 days starting on day 6 PI (Fig. 4A) and a NanoLuciferase assay was used to determine parasite shedding in feces (RLUs/g). Control mice received either vehicle (Fig. 4B, white) or positive control, DDD706 (Fig. 4B, black; NLuc parasites are genetically engineered to be resistant to paromomycin, so DDD706 serves as the positive control) at 20 mg/kg QD; DDD489 and DDD508 were tested at 50 mg/kg BID.
Male IFN-Gamma knockout mice (B6.129S7-Ifng^tmlTS/J, JAX 002287; purchased from Jackson Labs and bred at the University of Dundee) aged 30 weeks old were used, (n = 5 mice per experimental group). Mice were infected by oral gavage (100 oocysts of Δtk::mNeon-Neo^R as described previously([12])). Compounds were prepared in HMPC without DMSO and administered by oral gavage at 50 mg/kg starting day 6 PI. Early lead compound DDD706 served as the positive control (administered at 20 mg/kg QD). Fecal samples were pooled from all mice in the cage on days indicated. Oocyst shedding in feces was determined by NanoLuciferase assay (20 mg of fecal material was homogenized in 1 ml of lysis buffer and assayed for NLuc activity as previously described).([12])

Calf tolerability study = type: in vivo; details: 15 mg/kg twice daily oral 7 days
Description: Calf efficacy and tolerability study
Calf tolerability study (Moredun Scientific)
A tolerability study was conducted on uninfected calves prior to efficacy studies to confirm palatability and tolerance. Starting at day 2 post birth (“Day 1”), DDD489 or DDD508 were administered to four male calves per treatment group. The test compound was dosed at 15 mg/kg (maximum volume of 20 ml per occasion; prepared in vehicle: 0.5% HPMC, 0.4% Tween 80, 0.5% Benzyl alcohol in sterile water) for a total of 7 days. Administration was by oral gavage twice daily immediately prior to milk feeds, and at least 8 hours apart (± 30 minutes). Body weight was measured on day 0 and day 7, and clinical observations were recorded twice a day during dosing. Blood samples were collected from all animals prior to the morning treatment on Day 1, then 5 (± 2) minutes, 15 (± 2) minutes, 30 (± 5) minutes, 1, 2, 4, 8 and 24 hours (± 10 minutes) post first daily dose. This sample schedule was repeated on Day 7 for the same animals. Blood samples were processed to plasma. […]

KRS-OE = assay: Transgenic C. parvum NanoLuciferase drug sensitivity assay, KRS-OE; type: cell-based; details: Cryptosporidium parvum, HCT-8, 48 h, read-out: EC50, KRS-OE
[3] = Hepatocyte intrinsic clearance, rat; type: in vitro ADME; details: rat hepatocytes
[4] = Plasma protein binding, dog; type: in vitro ADME; details: read-out: PPB (d) (converted)
hERG potassium channels = biological target: T1, hERG potassium channels (Homo sapiens, UniProt Q12809); assay: hERG inhibition, manual patch-clamp; type: cell-based; details: CHO cells
T1 construct: host or cells: Chinese Hamster Ovary (CHO) cells
T1 sequence (Q12809 whole entry): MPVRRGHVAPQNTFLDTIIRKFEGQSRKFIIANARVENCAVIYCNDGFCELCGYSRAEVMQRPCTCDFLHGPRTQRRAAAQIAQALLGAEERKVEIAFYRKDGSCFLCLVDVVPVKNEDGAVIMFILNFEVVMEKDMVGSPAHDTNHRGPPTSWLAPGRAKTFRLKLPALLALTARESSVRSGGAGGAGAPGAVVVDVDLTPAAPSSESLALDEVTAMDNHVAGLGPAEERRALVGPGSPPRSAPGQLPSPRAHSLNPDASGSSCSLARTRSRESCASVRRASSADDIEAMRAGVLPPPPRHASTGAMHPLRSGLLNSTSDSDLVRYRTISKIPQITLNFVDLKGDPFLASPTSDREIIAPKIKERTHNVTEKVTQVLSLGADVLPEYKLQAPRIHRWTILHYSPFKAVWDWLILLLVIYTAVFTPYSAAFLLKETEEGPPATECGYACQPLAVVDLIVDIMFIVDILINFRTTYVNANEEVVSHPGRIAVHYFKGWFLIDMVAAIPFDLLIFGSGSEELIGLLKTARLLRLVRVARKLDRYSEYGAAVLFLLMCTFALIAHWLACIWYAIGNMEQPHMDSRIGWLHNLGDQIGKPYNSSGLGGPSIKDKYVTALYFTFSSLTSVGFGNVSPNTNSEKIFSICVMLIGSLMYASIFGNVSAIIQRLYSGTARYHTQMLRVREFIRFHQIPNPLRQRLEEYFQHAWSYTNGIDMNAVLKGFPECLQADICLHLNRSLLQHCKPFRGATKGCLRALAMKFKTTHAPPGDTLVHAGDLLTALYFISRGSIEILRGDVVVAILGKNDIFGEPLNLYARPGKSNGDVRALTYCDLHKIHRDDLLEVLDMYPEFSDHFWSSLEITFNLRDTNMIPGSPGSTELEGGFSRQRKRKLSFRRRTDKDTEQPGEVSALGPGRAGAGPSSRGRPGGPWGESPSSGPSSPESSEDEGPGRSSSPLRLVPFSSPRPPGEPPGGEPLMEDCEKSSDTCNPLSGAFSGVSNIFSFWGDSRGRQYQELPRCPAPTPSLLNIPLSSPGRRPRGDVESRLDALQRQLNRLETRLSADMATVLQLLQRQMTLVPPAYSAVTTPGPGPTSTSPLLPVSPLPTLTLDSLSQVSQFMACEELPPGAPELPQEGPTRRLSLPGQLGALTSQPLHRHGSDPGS
Description: hERG inhibition (WuXi App Tec)
DDD489 and DDD508 were evaluated for their effects on cloned hERG potassium channels stably expressed in Chinese Hamster Ovary (CHO) cells using manual patch-clamp technique in a hERG inhibition assay conducted at WuXi App Tec (Suzhou). […]

| Structure (SMILES) | EC50 (HepG2) | Cellular selectivity (HepG2) | solubility at 24 h [1] | Papp at 5 h, 10 µM (PAMPA permeability) | parasite shedding during treatment period [2] | recrudescence [2] | tolerability in uninfected calves (Calf tolerability study) | EC50 (KRS-OE) | Heps CLi (r) [3] | fraction unbound [4] | IC50 (hERG potassium channels) | PAMPA Papp (PAMPA permeability; pH 7.4) |
| --- | --- | --- | --- | --- | --- | --- | --- | --- | --- | --- | --- | --- |
| Nc1nc2c(c(C(F)(F)F)n1)C(=O)N(CC1CCCC(C(F)(F)F)C1)C2 (centres unmarked) [DDD489] | 18 µM | 450 fold | 21 µM (≈ 8.03 µg/mL) | 17.1 ×10⁻⁶ cm/s | reduced parasite shedding below the LOQ | able to prevent parasite recrudescence | well tolerated | 0.978 µM | 1.9 mL/min/g | 0.3 | > 30 µM |  |
| O=C(NCC1(O)CCCCC1)c1cc(=O)c2cc(O)ccc2o1 [DDD508] | 18 µM | 140 fold | 184 µM (≈ 58.4 µg/mL) | 0.69 ×10⁻⁶ cm/s | reduced parasite shedding below the limit of quantitation (LOQ) | unable to prevent recrudescence | well tolerated | > 1 µM | 1.1 mL/min/g | 0.52 | > 30 µM | 0.7 ×10⁻⁶ cm/s |
